The values that follow come from patent publication US20240246918A1, “COMPOUNDS AND COMPOSITIONS AS EIF4E INHIBITORS AND THE USES THEREOF” (Ribometrix, Inc., priority 2022, published 2024).

The test system of test [1] is COLO 205 colorectal tumor cells. The test can be described thus: Tumor cell viability inhibition assay (CellTiter-Glo 2.0, 72 hours). The class given is cell-based. Conditions: COLO 205 cell viability. In outline:
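COLO 205 cells (1500/well, RPMI-1640 + 10% FBS) exposed for 72 h to an 11-point, 4-fold dilution series; cellular ATP read by CellTiter-Glo 2.0 luminescence. Data normalized to DMSO and maximum-inhibition controls; IC50 from 4-parameter curve fit.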
For orientation: ATP-based viability assays read luminescence as a measure of living cells.

For the next test, the target named is T1, human eIF4E protein (Homo sapiens, UniProt P06730).
T1 construct: purchased Novus NBP-45314
As to the kind of experiment: Biochemical competitive binding assay (TR-FRET competition, EDA-m7GDP-ATTO-647N probe). The following applies: read-out: hEIF4E TR-FRET IC50. Summed up: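 His-tagged human eIF4E (4 nM) was preincubated with Eu-anti-His antibody (2.5 nM) and added to compound (11-point, 4-fold dilutions) for 15 min. Then 5 nM EDA-m7GDP-ATTO-647N was added for 15 min, in HEPES pH 7.5, 100 mM KCl. The 665/620 TR-FRET ratio was normalized to controls, and IC50 was taken from 4-parameter fits.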
A general note: Time-resolved FRET reads energy transfer from a long-lived donor to a nearby acceptor.

pIC50: −log10 of the molar value. Bounds are passed on as bounds.

T1 sequence (P06730 whole entry): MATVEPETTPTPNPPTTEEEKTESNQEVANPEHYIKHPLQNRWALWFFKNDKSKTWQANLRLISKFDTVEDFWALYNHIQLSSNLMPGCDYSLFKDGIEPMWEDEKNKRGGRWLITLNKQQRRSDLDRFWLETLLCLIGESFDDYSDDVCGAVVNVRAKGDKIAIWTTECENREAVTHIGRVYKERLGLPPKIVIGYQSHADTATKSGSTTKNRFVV

For `Cc1cc(-c2cc(Cl)ccc2OCCn2c(C)nc3c(c2=O)C[C@@H](N(C)C[C@H]2C[C@](C)(O)C2)CC3)c2scc(C(=O)O)c2n1` (single isomer, unassigned) [Compound 211], the pIC50 (in general, the IC50 on a negative log10 scale, so that one unit is a factor of ten) in test [1] (Homo sapiens, COLO 205, 72 h) was below 4.70; at human eIF4E protein, above 7.00.
Turning to `Cc1cc(-c2cc(Cl)ccc2OCCn2c(C)nc3c(c2=O)C[C@@H](N2CCC(c4ncco4)CC2)CC3)c2scc(C(=O)O)c2n1` (single isomer, unassigned) [Compound 461], the pIC50 is above 5.30 in test [1] (Homo sapiens, COLO 205, 72 h) and above 7.00 on human eIF4E protein.
For `COC1CCN([C@@H]2Cc3c(nc(C)n(CCOc4ccc(Cl)cc4-c4cc(C)nc5c(C(=O)O)csc45)c3=O)C3(CC3)C2)CC1` (single isomer, unassigned) [Compound 372], in that order: above 5.30 and above 7.00.
For `Cc1cc(-c2cc(Cl)ccc2OCCn2c(C)nc3c(c2=O)C[C@@H](N2[C@@H]4CC[C@H]2C[C@@H](OC(F)(F)F)C4)CC3)c2scc(C(=O)O)c2n1` (single isomer, unassigned) [Compound 396], in that order: above 5.30 and above 7.00.
For `Cc1cc(-c2cc(Cl)ccc2OCCn2c(C)nc3c(c2=O)CC(N2CCC4(CC2)CNCCO4)CC3)c2scc(C(=O)O)c2n1` (single isomer, unassigned) [Compound 527], in that order: below 4.70 and above 7.00.
In the case of `Cc1cc(-c2cc(Cl)ccc2OCCn2c(C)nc3c(c2=O)C[C@@H](N2CCC4(CC2)COCCO4)CC3)c2scc(C(=O)O)c2n1` (single isomer, unassigned) [Compound 425], the negative-log IC50 (pIC50) in test [1] (Homo sapiens, COLO 205, 72 h) is 4.70 to 5.30; at human eIF4E protein, above 7.00.
In the case of `Cc1cc(-c2cc(Cl)ccc2OCCn2c(C)nc3c(c2=O)C[C@H](N2CCC(OC(F)F)CC2)CC3)c2scc(C(=O)O)c2n1` (single isomer, unassigned) [Compound 385], the pIC50 was above 5.30 in test [1] (Homo sapiens, COLO 205, 72 h) and above 7.00 on human eIF4E protein.
Consider `Cc1nc2c(c(=O)n1CC#Cc1ccc(Cl)cc1-c1ccnc3c(C(=O)O)csc13)C[C@H](N1CCC[C@@]3(C1)CC3(F)F)CC2` (single isomer, unassigned) [Compound 550, 7-(5-chloro-2-(3-(6-(1,1-difluoro-5-azaspiro[2.5]octan-5-yl)-2-methyl-4-oxo-5,6,7,8-tetrahydroquinazolin-3(4H)-yl)prop-1-yn-1-yl)phenyl)thieno[3,2-b]pyridine-3-carboxylic acid], for which the pIC50 in test [1] (Homo sapiens, COLO 205, 72 h) was above 5.30; at human eIF4E protein, above 7.00.
In the same order, the values of `Cc1cc(-c2cc(Cl)ccc2OCCn2c(C)nc3c(c2=O)C[C@@H](N2CC[C@H](OC(F)(F)F)C(F)(F)C2)CC3)c2scc(C(=O)O)c2n1` (single isomer, unassigned) [Compound 406] are 4.70 to 5.30 and above 7.00.
Regarding `Cc1cc(-c2cc(Cl)ccc2OCCn2c(C)nc3c(c2=O)C[C@@H](N2CCC(n4cc(Cl)cn4)CC2)CC3)c2scc(C(=O)O)c2n1` (single isomer, unassigned) [Compound 109], the pIC50 is above 5.30 in test [1] (Homo sapiens, COLO 205, 72 h) and above 7.00 on human eIF4E protein.
For `Cc1cc(-c2cc(Cl)ccc2OCCn2c(C)nc3c(c2=O)C[C@H](N2CCC[C@H](c4cnn(C)c4)C2)CC3)c2scc(C(=O)O)c2n1` (single isomer, unassigned) [Compound 485], in that order: above 5.30 and above 7.00.
Take `Cc1cc(-c2cc(Cl)ccc2OCCn2c(C)nc3c(c2=O)C[C@@H](N2C[C@@H]4CC[C@H]2CC4OC(F)(F)F)CC3)c2scc(C(=O)O)c2n1` (single isomer, unassigned) [Compound 498]: the pIC50 was above 5.30 in test [1] (Homo sapiens, COLO 205, 72 h) and above 7.00 on human eIF4E protein.
As to `Cc1cc(-c2cc(Cl)ccc2OCCn2c(C)nc3c(c2=O)CC(N2CCC(OC(F)(F)F)CC2)CC3)c2scc(C(=O)NS(C)(=O)=O)c2n1` (single isomer, unassigned) [Compound 105], the pIC50 in test [1] is above 5.30; on human eIF4E protein it was above 7.00.
In the same order, the values of `Cc1cc(-c2cc(Cl)ccc2OCCn2c(C)nc3c(c2=O)CC(N2CC4(CCC(F)(F)CC4)C2)CC3)c2scc(C(=O)NS(C)(=O)=O)c2n1` (single isomer, unassigned) [Compound 364] are above 5.30 and above 7.00.
Take `Cc1cc(-c2cc(Cl)ccc2OCCn2c(C)nc3c(c2=O)C[C@H](N2CCC4(CC2)CC4(F)F)CC32CC2)c2scc(C(=O)O)c2n1` (single isomer, unassigned) [Compound 564]: the pIC50 in test [1] (Homo sapiens, COLO 205, 72 h) was above 5.30; at human eIF4E protein it was above 7.00.
For `Cc1cc(-c2cc(Cl)ccc2OCCn2c(C)nc3c(c2=O)C[C@@H](N2CCC(OC(F)(F)F)CC2)[C@H]2C[C@@H]32)c2scc(C(=O)O)c2n1` (single isomer, unassigned) [Compound 598], in that order: above 5.30 and above 7.00.
Turning to `Cc1cc(-c2cc(Cl)ccc2OCCn2c(C)nc3c(c2=O)C[C@H](N2CCC4(CC2)CC4(F)F)CC3)c2scc(C(=O)O)c2n1` (single isomer, unassigned) [Compound 390], the pIC50 in test [1] (Homo sapiens, COLO 205, 72 h) was above 5.30; on human eIF4E protein, above 7.00.
In the same order, the values of `Cc1cc(-c2cc(Cl)ccc2OCCn2c(C)nc3c(c2=O)C[C@H](N2CCC(c4ncco4)CC2)CC3)c2scc(C(=O)O)c2n1` (single isomer, unassigned) [Compound 460] are above 5.30 and above 7.00.
In the same order, the values of `Cc1cc(-c2cc(Cl)ccc2OCCn2c(C)nc3c(c2=O)C[C@@H](N2CCO[C@H](COC(F)(F)F)C2)CC3)c2scc(C(=O)O)c2n1` (single isomer, unassigned) [Compound 480] are above 5.30 and above 7.00.
For `Cc1cc(-c2cc(Cl)ccc2OCCn2c(C)nc3c(c2=O)C[C@](C)(N2CCC[C@]4(C2)CC4(F)F)CC3)c2scc(C(=O)O)c2n1` (single isomer, unassigned) [Compound 553], in that order: above 5.30 and above 7.00.
As to `Cc1cc(-c2cc(Cl)ccc2OCCn2c(C)nc3c(c2=O)C[C@H](N2CCC(Oc4ccc(F)cc4F)CC2)CC32CC2)c2scc(C(=O)O)c2n1` (single isomer, unassigned) [Compound 611], the pIC50 in test [1] (Homo sapiens, COLO 205, 72 h) was above 5.30; on human eIF4E protein it was above 7.00.
With `Cc1nc2c(c(=O)n1CC#Cc1ccc(Cl)cc1-c1ccnc3c(C(=O)O)csc13)C[C@@H](N1CCC[C@]3(C1)CC3(F)F)CC2` (single isomer, unassigned) [Compound 537, 7-(5-chloro-2-(3-(6-(1,1-difluoro-5-azaspiro[2.5]octan-5-yl)-2-methyl-4-oxo-5,6,7,8-tetrahydroquinazolin-3(4H)-yl)prop-1-yn-1-yl)phenyl)thieno[3,2-b]pyridine-3-carboxylic acid], the pIC50 in test [1] (Homo sapiens, COLO 205, 72 h) was 4.70 to 5.30; at human eIF4E protein, above 7.00.
Regarding `Cc1cc(-c2cc(Cl)c(=O)[nH]c2OCCn2c(C)nc3c(c2=O)CC(N(C)C2CC2)CC3)c2scc(C(=O)O)c2n1` (single isomer, unassigned) [Compound 234], the pIC50 is below 4.70 in test [1] and 5.30 to 6.30 at human eIF4E protein.
`[2H]C1(N2CCC(OC(F)(F)F)CC2)CCc2nc(C)n(CCOc3ccc(Cl)cc3-c3cc(C)nc4c(C(=O)O)csc34)c(=O)c2C1` (single isomer, unassigned) [Compound 370]: the pIC50 was above 5.30 in test [1] and above 7.00 at human eIF4E protein.
Regarding `Cc1cc(-c2cc(Cl)ccc2OCCn2c(C)nc3c(c2=O)C[C@H](N2CCC[C@@H](C(F)(F)F)C2)CC3)c2scc(C(=O)O)c2n1` (single isomer, unassigned) [Compound 382], the pIC50 is above 5.30 in test [1] (Homo sapiens, COLO 205, 72 h) and above 7.00 at human eIF4E protein.
For `Cc1cc(-c2cc(Cl)ccc2OCCn2c(C)nc3c(c2=O)C[C@@H](N2CCCC[C@H]2C(F)(F)F)CC32CC2)c2scc(C(=O)O)c2n1` (single isomer, unassigned) [Compound 630], in that order: 4.70 to 5.30 and above 7.00.
For `Cc1cc(-c2cc(Cl)ccc2OCCn2c(C)nc3c(c2=O)C[C@@H](N2C[C@@H]4CC(F)(F)C[C@@H]4C2)CC3)c2scc(C(=O)NS(C)(=O)=O)c2n1` (relative stereo) [Compound 369], in that order: above 5.30 and above 7.00.
For the compound `Cc1cc(-c2cc(Cl)ccc2OCCn2c(C)nc3c(c2=O)CC(N(C)Cc2ccc(=O)[nH]c2)CC3)c2scc(C(=O)O)c2n1` (single isomer, unassigned) [Compound 236], the pIC50 in test [1] was below 4.70; on human eIF4E protein it was above 7.00.
For `Cc1cc(-c2cc(Cl)ccc2OCCn2c(C)nc3c(c2=O)C[C@H](N2C[C@H]4CC[C@@H]2CC4OC(F)(F)F)CC32CC2)c2scc(C(=O)O)c2n1` (single isomer, unassigned) [Compound 606], the pIC50 in test [1] (Homo sapiens, COLO 205, 72 h) is above 5.30; on human eIF4E protein it was above 7.00.
For `Cc1cc(-c2cc(Cl)ccc2OCCn2c(C)nc3c(c2=O)CC(N2CC4(CCC(F)(F)CC4)C2)CC3)c2scc(C(=O)NS(C)(=O)=O)c2n1` (single isomer, unassigned) [Compound 363], the pIC50 in test [1] (Homo sapiens, COLO 205, 72 h) was above 5.30; on human eIF4E protein, above 7.00.
Take `Cc1cc(-c2cc(Cl)ccc2OCCn2c(C)nc3c(c2=O)C[C@@H](N2CCC(c4cnn(C)c4)CC2)CC3)c2scc(C(=O)O)c2n1` (single isomer, unassigned) [Compound 427]: the pIC50 is above 5.30 in test [1] (Homo sapiens, COLO 205, 72 h) and above 7.00 at human eIF4E protein.
For `Cc1cc(-c2cc(Cl)ccc2OCCn2c(C)nc3c(c2=O)CC(N2C4CCC2CC(F)(F)C4)CC3)c2scc(C(=O)O)c2n1` (stereo not drawn) [Compound 126], in that order: above 5.30 and above 7.00.
In the same order, the values of `Cc1cc(-c2cc(Cl)ccc2OCCn2c(C)nc3c(c2=O)C[C@H](N2CCC(C(F)(F)F)CC2)CC3)c2scc(C(=O)O)c2n1` (single isomer, unassigned) [Compound 373] are above 5.30 and above 7.00.
